Assay results as given in ChEMBL document CHEMBL1152560, “Substituted 2-arylbenzothiazoles as kinase inhibitors: hit-to-lead optimization” (Bioorg Med Chem, 2009).

Experiments:
[1] = target: Protein-tyrosine kinase 2-beta (Homo sapiens) (UniProt Q14289); assay: Residual activity of PYK2 at 10 uM by microplate scintillation counting
[2] = target: T1, Cytoplasmic tyrosine-protein kinase BMX (Homo sapiens) (UniProt P51813); assay: Residual activity of BMX at 0.1 uM by microplate scintillation counting
T1 sequence (whole entry): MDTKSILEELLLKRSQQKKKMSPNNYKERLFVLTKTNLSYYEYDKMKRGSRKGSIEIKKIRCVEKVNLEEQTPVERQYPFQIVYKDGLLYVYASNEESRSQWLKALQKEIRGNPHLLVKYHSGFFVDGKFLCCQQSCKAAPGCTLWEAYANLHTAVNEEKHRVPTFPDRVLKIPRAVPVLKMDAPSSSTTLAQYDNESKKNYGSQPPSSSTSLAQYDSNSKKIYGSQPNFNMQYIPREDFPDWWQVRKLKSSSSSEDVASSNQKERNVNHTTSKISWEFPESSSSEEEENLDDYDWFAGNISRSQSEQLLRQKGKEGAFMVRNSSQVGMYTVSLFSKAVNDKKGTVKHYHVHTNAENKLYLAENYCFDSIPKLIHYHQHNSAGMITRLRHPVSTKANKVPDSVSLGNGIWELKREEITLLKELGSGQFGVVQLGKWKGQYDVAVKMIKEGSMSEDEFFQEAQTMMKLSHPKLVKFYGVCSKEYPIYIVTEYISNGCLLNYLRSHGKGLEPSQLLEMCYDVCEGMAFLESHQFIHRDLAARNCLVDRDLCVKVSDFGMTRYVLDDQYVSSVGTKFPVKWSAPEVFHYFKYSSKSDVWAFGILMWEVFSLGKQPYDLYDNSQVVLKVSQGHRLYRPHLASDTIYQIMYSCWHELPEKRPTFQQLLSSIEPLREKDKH

[3] = target: T2, Serine/threonine-protein kinase 3 (Homo sapiens) (UniProt Q13188); assay: Residual activity of MST2 at 0.1 uM by microplate scintillation counting
T2 sequence (whole entry): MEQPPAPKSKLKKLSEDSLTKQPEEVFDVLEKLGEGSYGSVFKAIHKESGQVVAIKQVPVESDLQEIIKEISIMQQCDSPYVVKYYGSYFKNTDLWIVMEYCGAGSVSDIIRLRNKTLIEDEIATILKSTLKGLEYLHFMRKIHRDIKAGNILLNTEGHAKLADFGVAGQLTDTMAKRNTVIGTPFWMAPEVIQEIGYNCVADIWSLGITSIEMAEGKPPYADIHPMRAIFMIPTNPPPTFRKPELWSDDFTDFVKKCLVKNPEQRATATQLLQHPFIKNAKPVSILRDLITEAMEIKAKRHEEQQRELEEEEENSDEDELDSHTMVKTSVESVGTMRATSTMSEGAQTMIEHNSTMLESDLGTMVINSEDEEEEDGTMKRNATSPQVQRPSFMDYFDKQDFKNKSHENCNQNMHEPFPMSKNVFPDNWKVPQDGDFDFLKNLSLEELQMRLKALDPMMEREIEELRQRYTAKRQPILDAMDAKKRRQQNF

[4] = target: Macrophage colony-stimulating factor 1 receptor (Homo sapiens) (UniProt P07333); assay: Residual activity of CSF1R at 0.1 uM by microplate scintillation counting
Sequence of Macrophage colony-stimulating factor 1 receptor (Homo sapiens) (P07333 whole entry): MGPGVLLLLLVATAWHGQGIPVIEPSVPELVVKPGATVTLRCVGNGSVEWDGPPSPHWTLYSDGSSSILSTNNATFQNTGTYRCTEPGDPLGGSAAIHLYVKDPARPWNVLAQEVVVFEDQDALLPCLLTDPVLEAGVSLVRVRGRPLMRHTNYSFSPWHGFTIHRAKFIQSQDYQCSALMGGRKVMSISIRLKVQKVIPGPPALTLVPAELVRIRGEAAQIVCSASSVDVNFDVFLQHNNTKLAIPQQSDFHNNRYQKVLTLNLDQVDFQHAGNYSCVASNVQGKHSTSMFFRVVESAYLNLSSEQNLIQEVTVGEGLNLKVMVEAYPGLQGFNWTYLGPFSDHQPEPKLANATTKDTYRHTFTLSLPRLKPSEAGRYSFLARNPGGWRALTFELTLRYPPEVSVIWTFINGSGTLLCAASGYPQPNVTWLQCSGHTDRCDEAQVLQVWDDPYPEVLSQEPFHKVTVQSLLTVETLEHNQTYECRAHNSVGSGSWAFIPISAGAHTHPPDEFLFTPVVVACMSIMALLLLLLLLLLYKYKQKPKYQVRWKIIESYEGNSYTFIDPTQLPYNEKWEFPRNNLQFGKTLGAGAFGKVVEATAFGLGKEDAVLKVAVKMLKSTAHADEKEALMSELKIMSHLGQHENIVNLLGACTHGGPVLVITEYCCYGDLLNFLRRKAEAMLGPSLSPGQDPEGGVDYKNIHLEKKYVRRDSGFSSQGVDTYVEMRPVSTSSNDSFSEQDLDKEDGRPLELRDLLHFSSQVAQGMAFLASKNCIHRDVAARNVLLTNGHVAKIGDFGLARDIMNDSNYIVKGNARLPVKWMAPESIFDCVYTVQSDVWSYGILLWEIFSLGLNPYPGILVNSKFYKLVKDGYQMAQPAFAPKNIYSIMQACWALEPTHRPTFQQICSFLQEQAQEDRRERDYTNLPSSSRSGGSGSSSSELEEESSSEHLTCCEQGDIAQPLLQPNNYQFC

[5] = target: T3, Serine/threonine-protein kinase 4 (Homo sapiens) (UniProt Q13043); assay: Residual activity of MST1 at 10 uM by microplate scintillation counting
T3 sequence (whole entry): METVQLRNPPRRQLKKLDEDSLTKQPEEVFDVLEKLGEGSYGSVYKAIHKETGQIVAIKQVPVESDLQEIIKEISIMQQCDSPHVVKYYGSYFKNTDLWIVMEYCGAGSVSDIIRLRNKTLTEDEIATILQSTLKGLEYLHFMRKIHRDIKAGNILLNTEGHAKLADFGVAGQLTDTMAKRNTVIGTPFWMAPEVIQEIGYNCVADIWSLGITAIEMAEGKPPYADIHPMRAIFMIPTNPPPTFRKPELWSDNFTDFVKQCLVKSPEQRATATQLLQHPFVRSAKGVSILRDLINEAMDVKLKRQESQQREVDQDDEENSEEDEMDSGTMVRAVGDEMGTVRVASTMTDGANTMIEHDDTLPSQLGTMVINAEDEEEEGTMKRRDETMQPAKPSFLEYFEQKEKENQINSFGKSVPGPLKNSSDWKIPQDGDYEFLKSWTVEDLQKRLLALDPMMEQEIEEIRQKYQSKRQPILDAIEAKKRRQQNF

[6] = target: Serine/threonine-protein kinase N1 (Homo sapiens) (UniProt Q16512); assay: Residual activity of PRK1 at 0.1 uM by microplate scintillation counting
Sequence of Serine/threonine-protein kinase N1 (Homo sapiens) (Q16512 2-942 limits assumed): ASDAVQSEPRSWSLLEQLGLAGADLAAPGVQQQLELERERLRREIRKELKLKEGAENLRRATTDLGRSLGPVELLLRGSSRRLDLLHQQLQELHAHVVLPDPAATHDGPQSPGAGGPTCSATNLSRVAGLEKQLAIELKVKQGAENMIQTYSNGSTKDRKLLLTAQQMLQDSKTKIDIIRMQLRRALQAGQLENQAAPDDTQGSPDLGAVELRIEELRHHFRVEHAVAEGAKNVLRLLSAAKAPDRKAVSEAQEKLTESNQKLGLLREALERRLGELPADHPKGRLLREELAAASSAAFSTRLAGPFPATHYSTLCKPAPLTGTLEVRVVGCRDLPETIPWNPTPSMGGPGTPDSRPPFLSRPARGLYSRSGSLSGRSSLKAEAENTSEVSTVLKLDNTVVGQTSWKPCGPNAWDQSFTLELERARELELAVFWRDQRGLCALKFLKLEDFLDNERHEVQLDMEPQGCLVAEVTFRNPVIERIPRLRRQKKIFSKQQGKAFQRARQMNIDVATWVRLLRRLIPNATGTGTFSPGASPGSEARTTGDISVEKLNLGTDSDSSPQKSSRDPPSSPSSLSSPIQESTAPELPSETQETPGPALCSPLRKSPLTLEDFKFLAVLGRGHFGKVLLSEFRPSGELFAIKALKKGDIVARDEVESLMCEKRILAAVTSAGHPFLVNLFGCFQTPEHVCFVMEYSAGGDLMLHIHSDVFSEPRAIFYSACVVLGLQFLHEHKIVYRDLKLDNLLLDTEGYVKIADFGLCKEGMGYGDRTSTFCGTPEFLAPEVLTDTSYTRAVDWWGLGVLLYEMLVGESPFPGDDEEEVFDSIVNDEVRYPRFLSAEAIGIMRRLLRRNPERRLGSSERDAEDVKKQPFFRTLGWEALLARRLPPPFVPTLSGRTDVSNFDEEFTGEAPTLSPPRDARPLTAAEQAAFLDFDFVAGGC

[7] = target: Cyclin-dependent kinase 2/cyclin E1 (Homo sapiens) (UniProt P24864+P24941); assay: Residual activity of CDK2/Cyclin E at 10 uM by microplate scintillation counting; type: protein-complex assay
[8] = target: T4, Protein kinase C iota type (Homo sapiens) (UniProt P41743); assay: Residual activity of PKCiota at 1 uM by microplate scintillation counting
T4 sequence (whole entry): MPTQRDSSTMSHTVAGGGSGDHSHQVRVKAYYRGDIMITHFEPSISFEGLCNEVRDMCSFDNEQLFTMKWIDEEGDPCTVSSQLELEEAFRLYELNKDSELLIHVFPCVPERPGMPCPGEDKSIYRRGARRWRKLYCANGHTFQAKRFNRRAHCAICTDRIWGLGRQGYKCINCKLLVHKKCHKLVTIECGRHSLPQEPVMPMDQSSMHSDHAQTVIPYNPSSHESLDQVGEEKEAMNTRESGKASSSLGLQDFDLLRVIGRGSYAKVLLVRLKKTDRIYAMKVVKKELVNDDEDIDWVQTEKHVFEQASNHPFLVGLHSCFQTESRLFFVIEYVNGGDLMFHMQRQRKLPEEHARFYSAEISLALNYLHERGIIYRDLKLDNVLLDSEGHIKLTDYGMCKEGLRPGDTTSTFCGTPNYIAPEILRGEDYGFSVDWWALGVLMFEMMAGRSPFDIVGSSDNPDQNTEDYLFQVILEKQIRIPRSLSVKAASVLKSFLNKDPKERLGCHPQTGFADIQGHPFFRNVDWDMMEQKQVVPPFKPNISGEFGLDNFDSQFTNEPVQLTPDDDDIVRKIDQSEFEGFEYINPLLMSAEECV

[9] = target: Dual specificity protein kinase CLK1 (Homo sapiens) (UniProt P49759); assay: Residual activity of CLK1 at 10 uM by microplate scintillation counting
Sequence of Dual specificity protein kinase CLK1 (Homo sapiens) (P49759 whole entry, looked up): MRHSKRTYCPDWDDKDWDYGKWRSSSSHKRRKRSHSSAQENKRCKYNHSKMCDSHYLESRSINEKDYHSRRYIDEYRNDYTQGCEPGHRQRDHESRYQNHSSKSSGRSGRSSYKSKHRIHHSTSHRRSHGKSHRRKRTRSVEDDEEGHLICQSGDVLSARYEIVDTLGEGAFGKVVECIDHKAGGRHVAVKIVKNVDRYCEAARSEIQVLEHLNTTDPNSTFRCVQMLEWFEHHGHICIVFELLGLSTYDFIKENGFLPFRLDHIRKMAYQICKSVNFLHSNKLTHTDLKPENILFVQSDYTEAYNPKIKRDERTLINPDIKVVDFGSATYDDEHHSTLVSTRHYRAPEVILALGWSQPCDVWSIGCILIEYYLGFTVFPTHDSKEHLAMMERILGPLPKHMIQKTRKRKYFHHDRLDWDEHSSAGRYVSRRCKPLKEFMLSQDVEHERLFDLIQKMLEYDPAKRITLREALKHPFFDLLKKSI

[10] = target: Calcium/calmodulin-dependent protein kinase type 1D (Homo sapiens) (UniProt Q8IU85); assay: Residual activity of CAMK1D at 1 uM by microplate scintillation counting
Sequence of Calcium/calmodulin-dependent protein kinase type 1D (Homo sapiens) (Q8IU85 whole entry, looked up): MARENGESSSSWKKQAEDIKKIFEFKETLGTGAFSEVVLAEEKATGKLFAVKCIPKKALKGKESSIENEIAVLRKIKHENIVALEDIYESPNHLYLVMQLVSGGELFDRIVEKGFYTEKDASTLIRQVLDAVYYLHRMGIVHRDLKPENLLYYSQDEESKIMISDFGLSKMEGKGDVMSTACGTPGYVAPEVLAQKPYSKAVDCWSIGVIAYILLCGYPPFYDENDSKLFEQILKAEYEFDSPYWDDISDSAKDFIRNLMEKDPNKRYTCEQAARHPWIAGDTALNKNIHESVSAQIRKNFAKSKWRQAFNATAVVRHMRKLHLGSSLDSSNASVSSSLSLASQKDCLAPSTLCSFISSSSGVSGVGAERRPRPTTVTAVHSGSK

[11] = system: Tyrosine-protein kinase ABL1 (Homo sapiens), P00519 [T315I]; assay: Residual activity of ABL1 T315I mutant at 10 uM by microplate scintillation counting
[12] = target: Casein kinase I isoform gamma-3 (Homo sapiens) (UniProt Q9Y6M4); assay: Residual activity of CK1gamma3 at 0.1 uM by microplate scintillation counting
Sequence of Casein kinase I isoform gamma-3 (Homo sapiens) (Q9Y6M4 whole entry, looked up, canonical isoform): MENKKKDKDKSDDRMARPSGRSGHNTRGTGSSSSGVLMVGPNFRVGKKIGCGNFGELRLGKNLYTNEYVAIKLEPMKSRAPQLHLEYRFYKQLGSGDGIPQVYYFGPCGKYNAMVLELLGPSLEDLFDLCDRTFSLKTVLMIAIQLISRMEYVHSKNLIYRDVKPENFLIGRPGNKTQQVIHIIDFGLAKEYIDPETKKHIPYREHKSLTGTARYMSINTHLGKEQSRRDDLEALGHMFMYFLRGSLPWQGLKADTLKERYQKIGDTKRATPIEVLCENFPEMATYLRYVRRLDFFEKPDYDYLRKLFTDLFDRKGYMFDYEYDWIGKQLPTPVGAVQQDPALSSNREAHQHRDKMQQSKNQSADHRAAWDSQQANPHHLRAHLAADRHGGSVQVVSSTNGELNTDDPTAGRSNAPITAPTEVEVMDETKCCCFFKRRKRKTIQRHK

[13] = target: Tyrosine-protein kinase BTK (Homo sapiens) (UniProt Q06187); assay: Residual activity of BTK at 1 uM by microplate scintillation counting
Sequence of Tyrosine-protein kinase BTK (Homo sapiens) (Q06187 whole entry): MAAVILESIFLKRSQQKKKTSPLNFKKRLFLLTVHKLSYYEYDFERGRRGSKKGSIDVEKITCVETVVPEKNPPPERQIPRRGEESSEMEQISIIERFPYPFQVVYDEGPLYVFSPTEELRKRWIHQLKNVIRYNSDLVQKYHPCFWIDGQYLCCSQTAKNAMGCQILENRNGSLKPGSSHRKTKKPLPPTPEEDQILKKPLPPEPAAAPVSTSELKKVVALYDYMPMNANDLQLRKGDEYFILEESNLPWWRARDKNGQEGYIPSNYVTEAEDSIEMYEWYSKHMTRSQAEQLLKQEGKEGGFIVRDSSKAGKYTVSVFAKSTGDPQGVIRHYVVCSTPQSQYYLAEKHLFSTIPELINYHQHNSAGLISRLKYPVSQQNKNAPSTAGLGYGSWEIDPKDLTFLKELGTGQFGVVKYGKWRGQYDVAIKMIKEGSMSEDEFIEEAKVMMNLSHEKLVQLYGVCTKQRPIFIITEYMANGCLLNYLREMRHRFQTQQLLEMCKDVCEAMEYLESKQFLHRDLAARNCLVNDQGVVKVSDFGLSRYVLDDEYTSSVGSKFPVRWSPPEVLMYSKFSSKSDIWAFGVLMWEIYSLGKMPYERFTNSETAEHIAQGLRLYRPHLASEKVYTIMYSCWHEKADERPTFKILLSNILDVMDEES

Sequence of Protein-tyrosine kinase 2-beta (Homo sapiens) (Q14289 whole entry, looked up): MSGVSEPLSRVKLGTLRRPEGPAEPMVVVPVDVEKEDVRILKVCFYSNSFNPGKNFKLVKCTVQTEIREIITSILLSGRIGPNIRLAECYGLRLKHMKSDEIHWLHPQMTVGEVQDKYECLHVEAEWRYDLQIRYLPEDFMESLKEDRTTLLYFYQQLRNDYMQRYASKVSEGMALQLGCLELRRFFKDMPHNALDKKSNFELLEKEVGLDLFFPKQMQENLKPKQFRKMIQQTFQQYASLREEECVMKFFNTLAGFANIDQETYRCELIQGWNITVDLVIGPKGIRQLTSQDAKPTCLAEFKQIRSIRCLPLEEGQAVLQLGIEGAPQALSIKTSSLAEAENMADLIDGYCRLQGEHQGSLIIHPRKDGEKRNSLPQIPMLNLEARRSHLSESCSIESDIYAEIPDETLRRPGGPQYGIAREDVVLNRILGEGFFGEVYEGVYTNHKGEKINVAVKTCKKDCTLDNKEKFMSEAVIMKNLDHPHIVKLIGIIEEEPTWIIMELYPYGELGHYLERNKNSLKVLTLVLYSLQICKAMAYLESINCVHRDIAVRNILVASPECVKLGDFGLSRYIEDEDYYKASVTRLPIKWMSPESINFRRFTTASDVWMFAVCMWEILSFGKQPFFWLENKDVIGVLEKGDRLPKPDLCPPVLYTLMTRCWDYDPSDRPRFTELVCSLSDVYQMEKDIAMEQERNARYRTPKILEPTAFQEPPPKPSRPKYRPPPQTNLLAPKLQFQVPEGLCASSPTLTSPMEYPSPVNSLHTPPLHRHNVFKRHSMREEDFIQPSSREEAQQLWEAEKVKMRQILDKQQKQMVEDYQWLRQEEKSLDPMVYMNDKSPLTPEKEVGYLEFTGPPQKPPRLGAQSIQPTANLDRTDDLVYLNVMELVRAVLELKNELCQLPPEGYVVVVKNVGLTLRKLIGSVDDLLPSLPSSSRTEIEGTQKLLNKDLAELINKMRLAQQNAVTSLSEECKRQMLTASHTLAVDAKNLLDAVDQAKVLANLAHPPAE

Row | residual activity [1] | residual activity [2] | residual activity [3] | residual activity [4] | residual activity [5] | residual activity [6] | residual activity [7] | residual activity [8] | residual activity [9] | residual activity [10] | residual activity [11] | residual activity [12] | residual activity [13] | SMILES
1 | 113% | 94% | 82% | 120% | 30% | 96% | 116% | 103% | 97% | 92% | 43% | 94% | 163% | COc1cc2c(Oc3ccc(-c4nc5ccccc5s4)cc3)ncnc2cc1OCCCN1CCCC1
2 | 95% | 117% | 90% | 93% | 23% | 99% | 186% | 116% | 83% | 87% | 44% | 76% | 124% | COc1cc2c(Oc3ccc(-c4nc5ccccc5s4)cc3)ncnc2cc1OCCCN1CCN(C)CC1
3 | 54% | 116% | 92% | 88% | 26% | 94% | 194% | 102% | 61% | 91% | 31% | 90% | 114% | COc1cc2c(Oc3ccc(-c4nc5ccccc5s4)cc3F)ncnc2cc1OCCCN1CCN(C)CC1
